Active and inactive are the calls of the source.
What was measured:
[1] = molecular target: T1, Rac GTPase-activating protein 1 (Homo sapiens, UniProt Q9H0H5); test: MgcRacGAP GTPase-activating activity inhibitors, confirmation, biochemical, ADP Hunter fluorescence, primary and confirmatory (AID 624330); type: functional
T1 sequence (Q9H0H5 whole entry): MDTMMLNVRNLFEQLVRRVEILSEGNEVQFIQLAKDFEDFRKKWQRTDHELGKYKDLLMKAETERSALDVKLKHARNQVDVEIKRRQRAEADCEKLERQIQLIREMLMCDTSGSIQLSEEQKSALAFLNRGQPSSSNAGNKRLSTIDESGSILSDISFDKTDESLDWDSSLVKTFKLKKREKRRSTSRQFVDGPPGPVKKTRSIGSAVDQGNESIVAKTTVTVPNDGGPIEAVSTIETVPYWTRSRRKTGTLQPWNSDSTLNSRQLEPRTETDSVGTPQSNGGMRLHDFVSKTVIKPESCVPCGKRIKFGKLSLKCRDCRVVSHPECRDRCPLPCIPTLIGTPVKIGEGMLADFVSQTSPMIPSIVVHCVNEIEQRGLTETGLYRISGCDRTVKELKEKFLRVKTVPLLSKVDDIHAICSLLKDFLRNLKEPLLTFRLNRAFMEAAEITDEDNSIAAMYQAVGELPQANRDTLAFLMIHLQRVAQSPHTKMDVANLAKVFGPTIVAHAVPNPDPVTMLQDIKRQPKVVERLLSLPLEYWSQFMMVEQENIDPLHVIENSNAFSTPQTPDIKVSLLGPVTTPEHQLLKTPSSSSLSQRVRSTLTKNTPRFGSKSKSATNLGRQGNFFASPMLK

[2] = Shn3 3'UTR reporter inhibitors, dose response, cell-based, Clone20 osteoblasts, firefly luciferase, cherry-picked (AID 624132); type: functional;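 further: firefly luciferase luminescence from reporter carrying the Shn3 3'UTR in osteoblasts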
[3] = HeLa cell cytotoxicity, dose response, cytotoxicity control for MgcRacGAP inhibitor project (AID 624300); type: functional
[4] = molecular target: T2, Short transient receptor potential channel 4 (Mus musculus, UniProt Q9QUQ5); test: mouse TRPC4 channel activators, dose response, cell-based, HEK293 TRPC4/mu-opioid, Fluo-4 calcium (AID 434937); type: functional
T2 sequence (Q9QUQ5 whole entry): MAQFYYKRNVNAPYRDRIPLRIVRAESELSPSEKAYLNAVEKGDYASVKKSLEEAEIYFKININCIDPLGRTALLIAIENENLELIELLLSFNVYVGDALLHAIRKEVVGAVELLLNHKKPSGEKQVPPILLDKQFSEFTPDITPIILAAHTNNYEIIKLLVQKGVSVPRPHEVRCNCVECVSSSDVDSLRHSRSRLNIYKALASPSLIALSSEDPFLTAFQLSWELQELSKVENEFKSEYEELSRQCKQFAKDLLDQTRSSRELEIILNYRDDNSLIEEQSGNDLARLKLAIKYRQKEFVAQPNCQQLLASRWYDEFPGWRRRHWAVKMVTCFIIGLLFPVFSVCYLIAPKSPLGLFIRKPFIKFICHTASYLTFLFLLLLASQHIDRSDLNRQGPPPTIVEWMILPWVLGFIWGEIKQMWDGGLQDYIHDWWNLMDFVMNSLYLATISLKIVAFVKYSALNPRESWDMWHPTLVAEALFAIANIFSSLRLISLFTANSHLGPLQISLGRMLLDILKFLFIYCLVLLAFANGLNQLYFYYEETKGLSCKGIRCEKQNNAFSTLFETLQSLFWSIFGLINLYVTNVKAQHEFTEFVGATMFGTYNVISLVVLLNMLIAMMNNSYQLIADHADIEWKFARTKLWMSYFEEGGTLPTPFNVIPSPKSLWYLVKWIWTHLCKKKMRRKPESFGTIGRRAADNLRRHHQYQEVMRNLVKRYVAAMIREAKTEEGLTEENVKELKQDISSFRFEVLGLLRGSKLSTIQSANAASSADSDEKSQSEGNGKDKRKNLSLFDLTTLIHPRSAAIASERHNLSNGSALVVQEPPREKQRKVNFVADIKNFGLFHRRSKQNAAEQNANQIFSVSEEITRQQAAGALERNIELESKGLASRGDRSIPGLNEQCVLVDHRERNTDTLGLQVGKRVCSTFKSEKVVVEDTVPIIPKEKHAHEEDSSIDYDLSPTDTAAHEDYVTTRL

[5] = inhibitors of intracellular T. cruzi replication, confirmation, NIH3T3 host cells, beta-gal luminescence (AID 2044); type: functional, cell-based;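 further: intracellular parasites grown in NIH/3T3 mouse fibroblasts as host cells; luminescent beta-galactosidase reporter signal from transgenic T. cruzi replicating inside host cells; inhibitors lower the luminescence signal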
[6] = cytotoxicity toward NIH3T3 fibroblasts, dose response, counter-screen, cell-based, ATP luminescence, mouse fibroblasts (AID 2010); type: functional;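 further: cells exposed to compound for about 90 hours before reading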
[7] = Luminescence Cell-Based Dose Retest to Confirm Inhibitors of Cancer Stem Cells. [Related pubchem assays (depositor defined):AID2717, AID2721]; type: functional; conditions: Homo sapiens
[8] = control 3'UTR Renilla luciferase suppression, dose response, counter-screen for Shn3 inhibitor project, cell-based, Clone20-Shn3RL, cherry-picked (AID 624133); type: functional
[9] = HepG2 cell cytotoxicity, dose response, cytotoxicity control for Shn3 inhibitor project, CellTiter-Glo, cherry-picked (AID 624134); type: functional, cell-based
[10] = molecular target: T3, Low molecular weight phosphotyrosine protein phosphatase (Homo sapiens, UniProt P24666); type: functional; conditions: read-out: IC50_Mean
T3 sequence (P24666 whole entry): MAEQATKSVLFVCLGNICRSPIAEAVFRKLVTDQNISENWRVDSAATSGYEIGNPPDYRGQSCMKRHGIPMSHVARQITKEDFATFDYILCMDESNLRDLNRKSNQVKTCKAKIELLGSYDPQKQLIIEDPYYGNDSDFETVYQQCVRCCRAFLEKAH

[11] = molecular target: T4, Voltage-gated N-type calcium channel alpha-1B subunit/Amyloid beta A4 precursor protein-binding family A member 1 (Homo sapiens, UniProt Q00975+Q02410); type: protein assay
T4 sequence (Q00975 whole entry): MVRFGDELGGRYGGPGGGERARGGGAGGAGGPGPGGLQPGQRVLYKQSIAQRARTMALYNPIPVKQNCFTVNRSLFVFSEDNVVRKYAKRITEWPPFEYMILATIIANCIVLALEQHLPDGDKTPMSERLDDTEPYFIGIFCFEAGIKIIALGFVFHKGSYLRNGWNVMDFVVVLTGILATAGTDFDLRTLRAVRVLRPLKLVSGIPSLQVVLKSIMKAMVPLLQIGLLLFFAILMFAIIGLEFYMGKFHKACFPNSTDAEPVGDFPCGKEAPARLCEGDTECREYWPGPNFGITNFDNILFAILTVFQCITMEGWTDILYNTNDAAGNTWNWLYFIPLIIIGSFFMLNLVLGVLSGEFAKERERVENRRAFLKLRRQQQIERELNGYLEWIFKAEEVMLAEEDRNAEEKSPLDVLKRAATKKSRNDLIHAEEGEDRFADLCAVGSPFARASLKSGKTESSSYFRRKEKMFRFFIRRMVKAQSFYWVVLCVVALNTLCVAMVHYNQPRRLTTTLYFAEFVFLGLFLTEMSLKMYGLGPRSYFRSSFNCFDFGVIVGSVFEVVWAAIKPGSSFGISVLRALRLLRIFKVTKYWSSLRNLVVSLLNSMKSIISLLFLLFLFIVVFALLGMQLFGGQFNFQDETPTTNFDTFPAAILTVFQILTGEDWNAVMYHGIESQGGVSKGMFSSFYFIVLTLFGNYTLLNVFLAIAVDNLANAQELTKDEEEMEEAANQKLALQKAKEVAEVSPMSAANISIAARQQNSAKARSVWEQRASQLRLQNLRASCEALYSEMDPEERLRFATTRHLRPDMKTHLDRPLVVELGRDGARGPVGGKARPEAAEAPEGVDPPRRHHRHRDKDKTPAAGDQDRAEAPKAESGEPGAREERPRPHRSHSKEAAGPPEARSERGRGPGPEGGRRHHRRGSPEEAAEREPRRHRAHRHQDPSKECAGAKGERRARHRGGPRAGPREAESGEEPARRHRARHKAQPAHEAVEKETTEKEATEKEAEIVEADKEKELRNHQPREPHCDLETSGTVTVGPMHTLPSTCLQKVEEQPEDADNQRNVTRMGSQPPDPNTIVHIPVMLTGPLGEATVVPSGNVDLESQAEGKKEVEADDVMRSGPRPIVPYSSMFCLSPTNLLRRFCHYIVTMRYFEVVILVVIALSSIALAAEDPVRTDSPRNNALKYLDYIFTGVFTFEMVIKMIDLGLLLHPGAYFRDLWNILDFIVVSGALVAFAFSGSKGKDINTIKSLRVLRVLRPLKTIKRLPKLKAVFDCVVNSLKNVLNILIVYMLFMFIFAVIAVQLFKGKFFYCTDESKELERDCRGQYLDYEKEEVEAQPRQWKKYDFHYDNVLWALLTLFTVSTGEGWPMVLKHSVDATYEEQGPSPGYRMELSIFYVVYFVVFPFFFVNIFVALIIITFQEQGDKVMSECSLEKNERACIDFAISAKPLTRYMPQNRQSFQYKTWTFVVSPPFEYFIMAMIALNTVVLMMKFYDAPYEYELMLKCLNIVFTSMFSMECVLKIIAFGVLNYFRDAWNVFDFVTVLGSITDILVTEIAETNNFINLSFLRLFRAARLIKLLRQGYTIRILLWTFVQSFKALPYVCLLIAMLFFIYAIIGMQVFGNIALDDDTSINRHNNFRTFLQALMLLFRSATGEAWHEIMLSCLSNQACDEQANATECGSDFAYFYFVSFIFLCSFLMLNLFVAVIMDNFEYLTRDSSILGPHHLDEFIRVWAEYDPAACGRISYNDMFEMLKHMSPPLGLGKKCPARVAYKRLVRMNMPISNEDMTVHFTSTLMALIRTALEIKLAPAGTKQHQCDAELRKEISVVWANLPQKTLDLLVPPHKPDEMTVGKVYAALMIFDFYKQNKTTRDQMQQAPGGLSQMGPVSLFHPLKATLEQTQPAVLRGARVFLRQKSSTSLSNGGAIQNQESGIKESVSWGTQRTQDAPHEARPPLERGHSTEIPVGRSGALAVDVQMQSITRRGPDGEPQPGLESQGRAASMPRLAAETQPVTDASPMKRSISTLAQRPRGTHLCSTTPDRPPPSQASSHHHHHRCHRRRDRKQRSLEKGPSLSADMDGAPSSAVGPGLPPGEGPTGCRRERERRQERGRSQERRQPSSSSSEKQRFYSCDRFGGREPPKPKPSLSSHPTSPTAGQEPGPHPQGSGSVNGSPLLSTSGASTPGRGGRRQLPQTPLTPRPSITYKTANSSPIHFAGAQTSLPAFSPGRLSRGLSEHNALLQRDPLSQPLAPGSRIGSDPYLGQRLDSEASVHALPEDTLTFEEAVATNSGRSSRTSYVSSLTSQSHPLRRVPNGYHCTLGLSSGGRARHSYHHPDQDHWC
T4 sequence (Q02410 whole entry): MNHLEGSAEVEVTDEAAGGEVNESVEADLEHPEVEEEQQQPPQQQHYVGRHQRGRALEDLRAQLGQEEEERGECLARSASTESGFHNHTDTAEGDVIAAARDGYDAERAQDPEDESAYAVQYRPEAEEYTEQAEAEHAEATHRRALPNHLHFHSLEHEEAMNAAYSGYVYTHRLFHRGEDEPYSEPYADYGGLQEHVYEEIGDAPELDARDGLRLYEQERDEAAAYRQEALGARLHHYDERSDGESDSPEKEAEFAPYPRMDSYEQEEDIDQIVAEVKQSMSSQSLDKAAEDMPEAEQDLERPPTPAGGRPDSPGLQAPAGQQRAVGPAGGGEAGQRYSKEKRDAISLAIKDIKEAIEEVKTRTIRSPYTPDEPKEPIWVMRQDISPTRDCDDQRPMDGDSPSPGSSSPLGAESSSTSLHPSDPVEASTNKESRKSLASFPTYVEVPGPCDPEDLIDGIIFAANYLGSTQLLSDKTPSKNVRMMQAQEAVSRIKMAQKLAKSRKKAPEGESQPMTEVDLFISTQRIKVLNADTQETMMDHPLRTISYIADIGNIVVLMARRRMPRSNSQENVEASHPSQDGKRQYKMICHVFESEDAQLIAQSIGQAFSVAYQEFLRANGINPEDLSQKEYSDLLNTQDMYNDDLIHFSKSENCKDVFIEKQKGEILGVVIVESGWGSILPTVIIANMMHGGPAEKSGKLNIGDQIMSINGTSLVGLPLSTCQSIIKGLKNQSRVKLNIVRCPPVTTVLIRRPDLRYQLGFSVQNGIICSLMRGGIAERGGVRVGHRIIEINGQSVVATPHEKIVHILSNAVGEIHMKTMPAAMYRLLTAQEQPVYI

[12] = molecular target: T4, Voltage-gated N-type calcium channel alpha-1B subunit/Amyloid beta A4 precursor protein-binding family A member 1; type: protein assay; remark: listed apart in the source
[13] = molecular target: T3, Low molecular weight phosphotyrosine protein phosphatase; type: functional; conditions: read-out: IC50_Mean; remark: listed apart in the source
[14] = Fluorescence-based cell-based high throughput dose response assay for inhibitors of the interaction of nucleotide-binding oligomerization domain containing 2 (NOD2) and the receptor-interacting serine-threonine kinase 2 (RIPK2).; type: functional; conditions: Homo sapiens
[15] = molecular target: T5, Microphthalmia-associated transcription factor (Homo sapiens, UniProt O75030); test: TRPM1 promoter luciferase signal decrease, dose response, MITF inhibitor project, cell-based, SK-MEL-5, cherry-picked, set 3 (AID 493073); type: functional
T5 sequence (O75030 whole entry): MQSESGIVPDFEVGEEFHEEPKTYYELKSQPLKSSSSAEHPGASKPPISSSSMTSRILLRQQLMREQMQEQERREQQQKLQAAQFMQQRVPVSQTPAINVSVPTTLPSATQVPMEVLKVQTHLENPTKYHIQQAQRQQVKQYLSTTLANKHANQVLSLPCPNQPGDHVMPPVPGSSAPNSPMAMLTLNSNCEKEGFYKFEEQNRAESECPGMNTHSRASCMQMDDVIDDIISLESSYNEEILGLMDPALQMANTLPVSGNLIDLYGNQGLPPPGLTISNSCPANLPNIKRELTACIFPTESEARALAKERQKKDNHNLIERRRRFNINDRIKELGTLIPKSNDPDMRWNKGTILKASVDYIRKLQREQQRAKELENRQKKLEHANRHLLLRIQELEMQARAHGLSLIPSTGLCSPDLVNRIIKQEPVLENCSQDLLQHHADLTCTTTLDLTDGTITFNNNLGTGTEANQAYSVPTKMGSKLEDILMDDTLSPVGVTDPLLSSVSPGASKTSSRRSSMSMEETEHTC

[16] = molecular target: T6, Small ubiquitin-related modifier 1 (Homo sapiens, UniProt P63165); test: inhibitors of SUMO1 partner interactions, dose response, biochemical, FRET (AID 624383); type: functional; conditions: read-out: IC50_Mean
T6 sequence (P63165 whole entry, the tested form may be a part): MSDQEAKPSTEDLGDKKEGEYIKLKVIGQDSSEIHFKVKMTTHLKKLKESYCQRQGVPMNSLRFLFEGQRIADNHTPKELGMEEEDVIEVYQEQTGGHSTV

[17] = molecular target: T7, Carboxy-terminal domain RNA polymerase II polypeptide A small phosphatase 1 (Homo sapiens, UniProt Q9GZU7); test: inhibitors of CTDSP1, concentration-response testing, biochemical assay, absorbance-based, actives from ultra-high-throughput screening (AID 540297); type: functional
T7 sequence (Q9GZU7 whole entry): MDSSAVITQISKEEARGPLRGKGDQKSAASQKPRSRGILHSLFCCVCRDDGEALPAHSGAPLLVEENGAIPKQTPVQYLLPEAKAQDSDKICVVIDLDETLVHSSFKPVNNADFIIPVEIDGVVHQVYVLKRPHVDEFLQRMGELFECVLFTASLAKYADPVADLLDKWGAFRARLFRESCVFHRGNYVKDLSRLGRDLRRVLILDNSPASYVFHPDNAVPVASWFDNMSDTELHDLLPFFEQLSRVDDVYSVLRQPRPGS

[18] = molecular target: T6, Small ubiquitin-related modifier 1; test: inhibitors of SUMO1 peptide binding, dose response, biochemical, fluorescence polarization, uHTS hits (AID 624382); type: functional; conditions: read-out: IC50_Mean
INS1 = test: beta cell apoptosis inhibitors, cytokine rescue, dose response, luminescence, retest (AID 449756); type: functional, cell-based; conditions: Rattus norvegicus;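 further: cell death triggered by IL-1 beta plus TNF-alpha plus IFN-gamma mixture; protective hits raise ATP signal compared with cytokine alone wells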

For `COc1ccc(CN2CCC(N(CCc3ccccc3)Cc3ccccc3)CC2)c(OC)c1`, the IC50 [1] was 96.6 µM (active), the AC50 [2] was 8.1 µM (active) and the CC50 [3] was 56.3 µM (active). For the same compound, the EC50 [4] was 5.31 µM (active), the EC50 [5] was 1.49 µM (active) and the EC50 [6] was > 60 µM (inconclusive). For the same compound, the AC50 [7] was 5.9 µM (active), the AC50 [8] was 8.85 µM (active) and the AC50 [9] was 13.6 µM (active).

In the case of `CCOc1cc(/C=C(/C#N)C(=O)Nc2ccc(OC)cc2)ccc1OCc1ccc(C(=O)O)cc1`, the IC50 [10] is reported as 6.48 µM (active), the IC50 [11] is reported as 13.1 µM (active) and the IC50 [12] is reported as > 50 µM (inactive). For the same compound, the IC50 [13] was 9.46 µM (active).

In the case of `O=C(/C=C/c1ccc(Cl)c([N+](=O)[O-])c1)c1ccc(O)cc1`, the IC50 [14] is reported as 7.04 µM (active), the AC50 [15] is reported as 17.4 µM (active) and the AC50 [7] is reported as 4.36 µM (active).

With `C=Cc1ccc(C(=O)N2CCCC(CCC(=O)N3CCN(c4ccccn4)CC3)C2)cc1` (centres undefined) the IC50 [16] was 20.8 µM (inactive), the IC50 [17] was 22.2 µM (active) and the IC50 [18] was > 66.6 µM (inactive). The IC50 [11] was 8.01 µM (active) and the IC50 [12] was > 50 µM (inactive).

For `COc1ccc(Br)cc1CN1CCN(Cc2c[nH]c3ccccc23)CC1`, the AC50 (INS1) was 6.6 µM (active), the IC50 [1] was 86 µM (active) and the CC50 [3] was 79.4 µM (active).
